According to patent US8546377B2 (AbbVie Inc., priority 2009, dated 2013):
Read-outs that look alike come from different tables or passages of the source.

What was measured:
5HT2B receptors = target: T1, 5HT2B receptors (Homo sapiens, UniProt P41595); experiment: Human 5-HT2B functional assay in CHO-K1 cells (calcium flux, FLIPR); format: cell-based
T1 construct: expressed in transfected cells; host or cells: CHO-K1 cells
Method in brief: (§1)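 EC50 came from a 4-parameter logistic fit, with Emax expressed relative to serotonin, of intracellular Ca2+ rises read on FLIPR at 480/530 nm, 25° C, over 3 min. Compounds ran from 10 μM in six 1:10 steps (0.2% DMSO) on serum-starved CHO-K1 transfectants pre-loaded 60 min with Ca4 dye and probenecid.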

5HT2C receptors = target: T2, 5HT2C receptors (Homo sapiens, UniProt P28335); experiment: Human 5-HT2C functional assay in CHO-K1 cells (calcium flux, FLIPR); format: cell-based; parameters: expressed in transfected cells; host or cells: CHO-K1 cells; settings: for Emax: percentage relative to the effect of serotonin
T2 sequence (P28335 33-458): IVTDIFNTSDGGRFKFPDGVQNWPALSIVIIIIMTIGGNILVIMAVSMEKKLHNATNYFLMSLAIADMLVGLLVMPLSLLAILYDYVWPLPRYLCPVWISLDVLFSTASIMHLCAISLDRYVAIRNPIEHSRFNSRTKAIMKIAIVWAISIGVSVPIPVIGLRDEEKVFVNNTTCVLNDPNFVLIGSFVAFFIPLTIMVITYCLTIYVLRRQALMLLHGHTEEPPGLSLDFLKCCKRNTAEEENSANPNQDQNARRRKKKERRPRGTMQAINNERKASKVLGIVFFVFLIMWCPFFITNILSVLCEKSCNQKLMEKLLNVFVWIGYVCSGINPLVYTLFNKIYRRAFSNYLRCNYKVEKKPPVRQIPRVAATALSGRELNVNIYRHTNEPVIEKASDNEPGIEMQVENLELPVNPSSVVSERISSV
Method in brief: as §1

[1] = CHO-K1 cells over-expressing 5HT2B, calcium flux, read-out: EC50 (μM), 5-HT2B Agonist Activity
[2] = CHO-K1 cells over-expressing 5HT2C, calcium flux, read-out: EC50 (μM), 5-HT2c Agonist Activity
[3] = CHO-K1 cells, read-out: Emax (%), 5-HT2c Agonist Activity
[4] = CHO-K1 cells, percentage relative to the effect of serotonin, read-out: Emax (%), 5-HT2B Agonist Activity
[5] = CHO-K1, read-out: Emax (%), 5-HT2c Agonist Activity, CHO-K1 cells
[6] = CHO-K1, read-out: Emax (%), 5-HT2B Agonist Activity

T1 sequence (P41595 whole entry): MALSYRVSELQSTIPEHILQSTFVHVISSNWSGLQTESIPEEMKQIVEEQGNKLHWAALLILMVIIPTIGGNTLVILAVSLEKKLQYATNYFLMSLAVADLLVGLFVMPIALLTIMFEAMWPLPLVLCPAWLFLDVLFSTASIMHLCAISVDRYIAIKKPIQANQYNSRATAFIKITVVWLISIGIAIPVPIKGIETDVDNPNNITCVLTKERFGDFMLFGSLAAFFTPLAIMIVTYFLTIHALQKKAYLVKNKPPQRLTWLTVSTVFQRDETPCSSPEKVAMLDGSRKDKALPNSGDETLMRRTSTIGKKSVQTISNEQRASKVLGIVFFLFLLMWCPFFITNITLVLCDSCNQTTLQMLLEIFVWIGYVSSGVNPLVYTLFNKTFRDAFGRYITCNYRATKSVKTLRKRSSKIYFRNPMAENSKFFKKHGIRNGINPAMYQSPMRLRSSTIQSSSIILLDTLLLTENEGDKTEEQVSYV

SMILES | EC50 (5HT2B receptors; [1]) | EC50 (5HT2C receptors; [2]) | Emax (5HT2C receptors; [3]) | Emax (5HT2B receptors; [4]) | EC50 (5HT2B receptors) | EC50 (5HT2C receptors) | Emax (5HT2C receptors; [5]) | Emax (5HT2B receptors; [6])
Brc1ccc2c(c1)NCC[C@H]1CNCCN21 [Example 54, (4aS)-9-bromo-1,2,3,4,4a,5,6,7-octahydropyrazino[1,2-a][1,5]benzodiazepine] |  |  |  |  | > 10 µM | 0.07 µM | 110% | 
O=C1C[C@H]2CNCCN2c2ccc(Cl)cc2N1 [Example 55, (4aS)-9-chloro-1,2,3,4,4a,5-hexahydropyrazino[1,2-a][1,5]benzodiazepin-6(7H)-one] |  |  |  |  | > 10 µM | 0.02 µM | > 120% | 
CC(O)c1cccc(-c2cccc3c2OCC[C@H]2CNCCN32)c1 (stereo partly drawn) [Example 233, 1-{3-[(4aS)-2,3,4,4a,5,6-hexahydro-1H-pyrazino[2,1-d][1,5]benzoxazepin-8-yl]phenyl}ethanol] | > 10 µM | 0.003 µM | 105% |  |  |  |  | 
CC(C)Oc1cccc(-c2ccc3c(c2)N2CCNC[C@@H]2CC(=O)N3)c1 [Example 117, (4aS)-10-(3-isopropoxyphenyl)-1,2,3,4,4a,5-hexahydropyrazino[1,2-a][1,5]benzodiazepin-6(7H)-one] | > 10 µM | 0.001 µM | > 120% |  |  |  |  | 
O=C1CC2CNCCN2c2cc(OCc3ccccc3F)ccc2N1 (centres unmarked) [Example 155, 10-[(2-fluorobenzyl)oxy]-1,2,3,4,4a,5-hexahydropyrazino[1,2-a][1,5]benzodiazepin-6(7H)-one] | > 10 µM | 0.0384 µM | > 120% |  |  |  |  | 
O=C1C[C@H]2CNCCN2c2cc(OCCc3cccc(F)c3)ccc2N1 [Example 164, (4aS)-10-[2-(3-fluorophenyl)ethoxy]-1,2,3,4,4a,5-hexahydropyrazino[1,2-a][1,5]benzodiazepin-6(7H)-one] | > 10 µM | 0.007 µM | > 120% |  |  |  |  | 
O=C1C[C@@H]2CNCCN2c2c(F)cccc2N1 [Example 87, (4aR)-11-fluoro-1,2,3,4,4a,5-hexahydropyrazino[1,2-a][1,5]benzodiazepin-6(7H)-one] |  |  |  |  | > 10 µM | 0.9 µM | > 120% | 
Cc1cccc(-c2ccc3c(c2)N2CCNC[C@@H]2CCO3)c1 [Example 190, (4aS)-10-(3-methylphenyl)-2,3,4,4a,5,6-hexahydro-1H-pyrazino[2,1-d][1,5]benzoxazepine] | > 10 µM | 0.02 µM | > 120% |  |  |  |  | 
Cc1ccc2c(c1)OCC[C@@H]1CNCCN21 [Example 259, (4aR)-9-methyl-2,3,4,4a,5,6-hexahydro-1H-pyrazino[2,1-d][1,5]benzoxazepine] |  |  |  |  | 0.1 µM | 0.004 µM | 100% | 70%
CCc1ccc2c(c1)N1CCNC[C@@H]1CCO2 [Example 211, (4aS)-10-ethyl-2,3,4,4a,5,6-hexahydro-1H-pyrazino[2,1-d][1,5]benzoxazepine] |  |  |  |  | 0.04 µM | 0.02 µM | 70% | 45%
Oc1ccccc1-c1ccc2c(c1)N1CCNC[C@@H]1CCO2 [Example 200, 2-[(4aS)-2,3,4,4a,5,6-hexahydro-1H-pyrazino[2,1-d][1,5]benzoxazepin-10-yl]phenol] | > 10 µM | 0.01 µM | > 120% |  |  |  |  | 
C[C@H]1CN2c3ccccc3OCC[C@H]2CN1 [Example 271, (2S,4aS)-2-methyl-2,3,4,4a,5,6-hexahydro-1H-pyrazino[2,1-d][1,5]benzoxazepine] |  |  |  |  | > 10 µM | 0.1 µM | 50% | 
O=C1C[C@H]2CNCCN2c2cc(OCCc3ccccc3F)ccc2N1 [Example 118, (4aS)-10-[2-(2-fluorophenyl)ethoxy]-1,2,3,4,4a,5-hexahydropyrazino[1,2-a][1,5]benzodiazepin-6(7H)-one] | > 10 µM | 0.009 µM | > 120% |  |  |  |  | 
Cc1cccc2c1OCC[C@H]1CN(C)CCN21 [Example 242, (4aS)-3,8-dimethyl-2,3,4,4a,5,6-hexahydro-1H-pyrazino[2,1-d][1,5]benzoxazepine] |  |  |  |  | > 10 µM | 0.002 µM | 80% | 
CCC(Oc1ccc2c(c1)N1CCNC[C@@H]1CC(=O)N2)c1ccccc1 (stereo partly drawn) [Example 177, (4aS)-10-(1-phenylpropoxy)-1,2,3,4,4a,5-hexahydropyrazino[1,2-a][1,5]benzodiazepin-6(7H)-one] | > 10 µM | 0.06 µM | 110% |  |  |  |  | 
CN1CCN2c3ccc(Cl)cc3OCC[C@H]2C1 [Example 220, (4aS)-9-chloro-3-methyl-2,3,4,4a,5,6-hexahydro-1H-pyrazino[2,1-d][1,5]benzoxazepine] |  |  |  |  | > 10 µM | 0.04 µM | 40% | 
O=C1CC2CNCCN2c2cc(-c3ccc(F)cc3)ccc2N1 (centres unmarked) [Example 74, 10-(4-fluorophenyl)-1,2,3,4,4a,5-hexahydropyrazino[1,2-a][1,5]benzodiazepin-6(7H)-one] | > 10 µM | 0.07 µM | 100% |  |  |  |  | 

Continued, in another order:

EC50 (5HT2B receptors; [1]) | EC50 (5HT2C receptors; [2]) | Emax (5HT2C receptors; [3]) | Emax (5HT2B receptors; [4]) | SMILES | EC50 (5HT2B receptors) | EC50 (5HT2C receptors) | Emax (5HT2C receptors; [5]) | Emax (5HT2B receptors; [6])
> 10 µM | 0.9 µM | 50% |  | c1ccc(CN2CCN3c4ccccc4OCC[C@H]3C2)cc1 [Example 168, (4aS)-3-benzyl-2,3,4,4a,5,6-hexahydro-1H-pyrazino[2,1-d][1,5]-benzoxazepine] |  |  |  | 
> 10 µM | 0.01 µM | 100% |  | O=C1CC2CNCCN2c2cc(OCCc3cccc(F)c3)ccc2N1 (centres unmarked) [Example 152, 10-[2-(3-fluorophenyl)ethoxy]-1,2,3,4,4a,5-hexahydropyrazino[1,2-a][1,5]benzodiazepin-6(7H)-one] |  |  |  | 
0.1 µM | 0.001 µM | > 120% | 50% | CC(C)=Cc1ccc2c(c1)N1CCNC[C@@H]1CCO2 [Example 208, (4aS)-10-(2-methylprop-1-en-1-yl)-2,3,4,4a,5,6-hexahydro-1H-pyrazino[2,1-d][1,5]benzoxazepine] |  |  |  | 
> 10 µM | 0.09 µM | 100% |  | O=C1CC2CNCCN2c2cc(-c3csc4ccccc34)ccc2N1 (centres unmarked) [Example 66, 10-(1-benzothiophen-3-yl)-1,2,3,4,4a,5-hexahydropyrazino[1,2-a][1,5]benzodiazepin-6(7H)-one] |  |  |  | 
> 10 µM | 0.02 µM | > 120% |  | CC(C)c1cccc(-c2ccc3c(c2)N2CCNCC2CC(=O)N3)c1 (centres unmarked) [Example 92, 10-(3-isopropylphenyl)-1,2,3,4,4a,5-hexahydropyrazino[1,2-a][1,5]benzodiazepin-6(7H)-one] |  |  |  | 
> 10 µM | 0.4 µM | > 120% |  | COc1ccc(-c2ccc3c(c2)N2CCNC[C@@H]2CCO3)cc1 [Example 194, (4aS)-10-(4-methoxyphenyl)-2,3,4,4a,5,6-hexahydro-1H-pyrazino[2,1-d][1,5]benzoxazepine] |  |  |  | 
0.08 µM | 0.04 µM | 110% | 20% | O=C1C[C@H]2CNCCN2c2cc(OC(F)F)ccc2N1 [Example 131, (4aS)-10-(difluoromethoxy)-1,2,3,4,4a,5-hexahydropyrazino[1,2-a][1,5]benzodiazepin-6(7H)-one] |  |  |  | 
> 10 µM | 0.8 µM | > 120% |  | Clc1ccc2c(c1)N1CCN(Cc3ccccc3)C[C@@H]1CCO2 [Example 186, (4aS)-3-benzyl-10-chloro-2,3,4,4a,5,6-hexahydro-1H-pyrazino[2,1-d][1,5]-benzoxazepine] |  |  |  | 
> 10 µM | 0.2 µM | > 120% |  | O=C1CC2CNCCN2c2cc(COc3ccc(F)cc3)ccc2N1 (centres unmarked) [Example 115, 10-[(4-fluorophenoxy)methyl]-1,2,3,4,4a,5-hexahydropyrazino[1,2-a][1,5]benzodiazepin-6(7H)-one] |  |  |  | 
1 µM | 0.03 µM | > 120% | 10% | COc1ccccc1-c1ccc2c(c1)N1CCNC[C@@H]1CCO2 [Example 192, (4aS)-10-(2-methoxyphenyl)-2,3,4,4a,5,6-hexahydro-1H-pyrazino[2,1-d][1,5]benzoxazepine] |  |  |  | 
1 µM | 0.03 µM | > 120% | 20% | Cc1ccccc1-c1ccc2c(c1)N1CCNC[C@@H]1CCO2 [Example 189, (4aS)-10-(2-methylphenyl)-2,3,4,4a,5,6-hexahydro-1H-pyrazino[2,1-d][1,5]benzoxazepine] |  |  |  | 
1 µM | 0.01 µM | > 120% | 25% | CC(=O)c1cccc(-c2ccc3c(c2)N2CCNC[C@@H]2CCO3)c1 [Example 198, 1-{3-[(4aS)-2,3,4,4a,5,6-hexahydro-1H-pyrazino[2,1-d][1,5]benzoxazepin-10-yl]phenyl}ethanone] |  |  |  | 
1 µM | 0.03 µM | 120% | 25% | CC(C)Cc1ccc2c(c1)N1CCNC[C@@H]1CCO2 [Example 213, (4aS)-10-isobutyl-2,3,4,4a,5,6-hexahydro-1H-pyrazino[2,1-d][1,5]benzoxazepine] |  |  |  | 
